“And” between values parts separate entries of the source, which are not always exact repeats. Equal values may be shown once. Results filed as inconclusive are left out.
Tested on: nude mice, HT29 intrarenal xenograft, tumor weight T/C
Assay: NCI In Vivo Anticancer Drug Screen. Data for tumor model HT29;CX-1 Human Adenocarcinoma (MER+) (intrarenal inoculation) in NU/NU Swiss (nude) mice
Conditions: endpoint: mean tumor weight change, higher = larger tumour
Procedure, shortened: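 Tumor-bearing mice received test compound or vehicle, and tumor size or survival was recorded. Values are the treated-group measurement divided by the vehicle-treated control measurement.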

[1] = dose: 37.5 mg/kg/injection, schedule: Q04DX004 (sc), vehicle: saline with Tween-80
[2] = dose: 75.0 mg/kg/injection, schedule: Q04DX004 (sc), vehicle: saline with Tween-80
[3] = dose: 150.0 mg/kg/injection, schedule: Q04DX004 (sc), vehicle: saline with Tween-80
[4] = dose: 300.0 mg/kg/injection, schedule: Q04DX004 (sc), vehicle: saline with Tween-80
[5] = dose: 150.0 mg/kg/injection, schedule: Q04DX004 (sc), vehicle: Klucel (hydroxypropylcellulose) (HPC)
[6] = dose: 300.0 mg/kg/injection, schedule: Q04DX004 (sc), vehicle: Klucel (hydroxypropylcellulose) (HPC)
[7] = dose: 600.0 mg/kg/injection, schedule: Q04DX004 (sc), vehicle: Klucel (hydroxypropylcellulose) (HPC)

For `CC1OC(=O)C(C(C)C)NC(=O)C(C(C)C)OC(=O)C(C(C)C)NC(=O)C(C)OC(=O)C(C(C)C)NC(=O)C(C(C)C)OC(=O)C(C(C)C)NC(=O)C(C)OC(=O)C(C(C)C)NC(=O)C(C(C)C)OC(=O)C(C(C)C)NC1=O` (stereo unspecified), the T/C (dose: 5.0 mg/kg/injection, schedule: Q01DX010 (sc), vehicle: saline with Tween-80) was 87 % of control and 103 % of control.
For `CCCCCCCC(=O)[O][Hg][CH2]C1COC([CH2][Hg][O]C(=O)CCCCCCC)CO1` (stereo unspecified), the T/C [1] was 110 % of control, the T/C [2] was 120 % of control and the T/C [3] was 47 % of control. For the same compound, the T/C [4] was 51 % of control.
With `CC[C@H](CC[C@@H](C)C1CC[C@H]2[C@@H]3CC=C4C[C@@H](OP(=O)(N5CC5)N5CC5)CC[C@]4(C)[C@H]3CC[C@]12C)C(C)C` (stereo partly specified) the T/C (dose: 100.0 mg/kg/injection, schedule: Q01DX010 (sc), vehicle: saline with Tween-80) was 73 % of control and the T/C (dose: 800.0 mg/kg/injection, schedule: Q01DX010 (sc), vehicle: saline with Tween-80) was 97 % of control.
`COC(=O)NC1C(C)OC(OC2C/C=C(/C)C3C=CC4C(OC5CC(OC6CCC(OC7CC(O)C(OC8CCC(O)C(C)O8)C(C)O7)C(C)O6)C(OC(C)=O)C(C)O5)C(C)CC(C)C4C3(C)/C(O)=C3/C(=O)OC4(CC(C=O)=CC(O)C4/C=C\2C)C3=O)CC1(C)[N+](=O)[O-]` (stereo unspecified) was tested, and the T/C (dose: 12.5 mg/kg/injection, schedule: Q04DX004 (sc), vehicle: other) was 92 % of control, the T/C (dose: 25.0 mg/kg/injection, schedule: Q04DX004 (sc), vehicle: other) was 103 % of control and the T/C (dose: 50.0 mg/kg/injection, schedule: Q04DX004 (sc), vehicle: other) was 51 % of control.
For `CCC1CCCCN1C(=S)N/N=C(\C)c1ccccn1` (stereo unspecified), the T/C [1] was 59 % of control and the T/C [2] was 26 % of control.
`COC(=O)Nc1cn2cc(C(=O)c3cccs3)ccc2n1` was tested, and the T/C (dose: 75.0 mg/kg/injection, schedule: Q04DX004 (sc), vehicle: Klucel (hydroxypropylcellulose) (HPC)) was 91 % of control, the T/C [5] was 65 % of control and the T/C [6] was 50 % of control. For the same compound, the T/C [7] was 54 % of control and 76 % of control, the T/C (dose: 1200.0 mg/kg/injection, schedule: Q04DX004 (sc), vehicle: Klucel (hydroxypropylcellulose) (HPC)) was 67 % of control and the T/C (dose: 2400.0 mg/kg/injection, schedule: Q04DX004 (sc), vehicle: Klucel (hydroxypropylcellulose) (HPC)) was 36 % of control.
With `CCCNC1=C(C)C(=O)C2=C(C1=O)[C@H](COC(N)=O)[C@]1(OC)[C@@H]3N[C@@H]3CN21` the T/C (dose: 6.0 mg/kg/injection, schedule: Q04DX003 (sc), vehicle: saline) was 78 % of control and the T/C (dose: 12.0 mg/kg/injection, schedule: Q04DX003 (sc), vehicle: saline) was 1 % of control.
In the case of `CC(=O)NC(Cc1ccc(F)cc1)C(=O)O` (stereo unspecified), the T/C (dose: 225.0 mg/kg/injection, schedule: Q04DX004 (sc), vehicle: saline with Tween-80) is reported as 108 % of control, the T/C (dose: 450.0 mg/kg/injection, schedule: Q04DX004 (sc), vehicle: saline with Tween-80) is reported as 114 % of control and the T/C (dose: 900.0 mg/kg/injection, schedule: Q04DX004 (sc), vehicle: saline with Tween-80) is reported as 83 % of control. For the same compound, the T/C (dose: 1800.0 mg/kg/injection, schedule: Q04DX004 (sc), vehicle: saline with Tween-80) was 106 % of control.
With `CCOC(=O)Nc1cc2c(c(N)n1)N=C(c1ccc(Cl)cc1Cl)CN2` the T/C [1] was 92 % of control, the T/C [2] was 150 % of control and the T/C [3] was 78 % of control. The T/C [4] was 83 % of control.
For `CC(=O)OCc1cc(=O)n(C)c2c3c4c(cc12)c(C)cc(=O)n4CO3`, the T/C (dose: 25.0 mg/kg/injection, schedule: Q01DX010 (sc), vehicle: Klucel (hydroxypropylcellulose) (HPC)) was 99 % of control, the T/C (dose: 50.0 mg/kg/injection, schedule: Q01DX010 (sc), vehicle: Klucel (hydroxypropylcellulose) (HPC)) was 105 % of control and the T/C (dose: 100.0 mg/kg/injection, schedule: Q01DX010 (sc), vehicle: Klucel (hydroxypropylcellulose) (HPC)) was 59 % of control. For the same compound, the T/C (dose: 200.0 mg/kg/injection, schedule: Q01DX010 (sc), vehicle: Klucel (hydroxypropylcellulose) (HPC)) was 34 % of control.
For `OCC12COCN1COC2`, the T/C (dose: 150.0 mg/kg/injection, schedule: Q04DX004 (sc), vehicle: saline) was 88 % of control, the T/C (dose: 300.0 mg/kg/injection, schedule: Q04DX004 (sc), vehicle: saline) was 76 % of control and the T/C (dose: 600.0 mg/kg/injection, schedule: Q04DX004 (sc), vehicle: saline) was 94 % of control. The T/C (dose: 1200.0 mg/kg/injection, schedule: Q04DX004 (sc), vehicle: saline) was 90 % of control.
In the case of `CCCCCCOC(CN(C)C)C(Cl)(Cl)Cl` (stereo unspecified), the T/C (dose: 400.0 mg/kg/injection, schedule: Q04DX004 (sc), vehicle: saline with Tween-80) is reported as 91 % of control, the T/C (dose: 800.0 mg/kg/injection, schedule: Q04DX004 (sc), vehicle: saline with Tween-80) is reported as 57 % of control and the T/C (dose: 1600.0 mg/kg/injection, schedule: Q04DX004 (sc), vehicle: saline with Tween-80) is reported as 81 % of control. For the same compound, the T/C (dose: 2400.0 mg/kg/injection, schedule: Q04DX004 (sc), vehicle: saline with Tween-80) was 67 % of control.
With `CC[PH+](CC)CC[S-].CC[PH+](CC)CC[S-].[Au+].[Au+]` the T/C (dose: 160.0 mg/kg/injection, schedule: Q04DX004 (sc), vehicle: Klucel (hydroxypropylcellulose) (HPC)) was 152 % of control.
In the case of `CCCCCCCCCCCCCCC/C([O-])=N/[N+](C)(C)CC(C)O` (stereo unspecified), the T/C (dose: 50.0 mg/kg/injection, schedule: Q04DX004 (sc), vehicle: Klucel (hydroxypropylcellulose) (HPC)) is reported as 106 % of control, the T/C (dose: 100.0 mg/kg/injection, schedule: Q04DX004 (sc), vehicle: Klucel (hydroxypropylcellulose) (HPC)) is reported as 103 % of control and the T/C (dose: 200.0 mg/kg/injection, schedule: Q04DX004 (sc), vehicle: Klucel (hydroxypropylcellulose) (HPC)) is reported as 86 % of control. For the same compound, the T/C (dose: 400.0 mg/kg/injection, schedule: Q04DX004 (sc), vehicle: Klucel (hydroxypropylcellulose) (HPC)) was 110 % of control.
`CN(C=O)C(C(=O)Nc1cccc2c(OC(=O)C(N(C)C=O)(N(C)C=O)N(C)C=O)c(N=Nc3ccc(S(=O)(=O)Nc4nccs4)cc3)cc(N=Nc3ccc(S(=O)(=O)Nc4nccs4)cc3)c12)(N(C)C=O)N(C)C=O` (tested in a mixture with another compound) was tested, and the T/C [4] was 91 % of control, the T/C (dose: 600.0 mg/kg/injection, schedule: Q04DX004 (sc), vehicle: saline with Tween-80) was 103 % of control and the T/C (dose: 1200.0 mg/kg/injection, schedule: Q04DX004 (sc), vehicle: saline with Tween-80) was 80 % of control.
For `CC[n+]1c(-c2ccccc2)c2cc(N)ccc2c2ccc(N)cc21`, the T/C (dose: 15.0 mg/kg/injection, schedule: Q04DX004 (sc), vehicle: saline) was 119 % of control, the T/C (dose: 30.0 mg/kg/injection, schedule: Q04DX004 (sc), vehicle: saline) was 66 % of control and the T/C (dose: 60.0 mg/kg/injection, schedule: Q04DX004 (sc), vehicle: saline) was 53 % of control.
`CC[N+](CC)(CC)CC` was tested, and the T/C (dose: 3.0 mg/kg/injection, schedule: Q01DX010 (sc), vehicle: saline with Tween-80) was 68 % of control and the T/C (dose: 6.0 mg/kg/injection, schedule: Q01DX010 (sc), vehicle: saline with Tween-80) was 104 % of control.
In the case of `Cc1ccc(S(=O)(=O)N/N=C/C(Br)=C(/Br)C(=O)O)cc1`, the T/C [5] is reported as 47 % of control, the T/C [6] is reported as 55 % of control and the T/C [7] is reported as 22 % of control.
With `CCOC(=O)Nc1cc2c(c(N)n1)N=C(c1ccccc1)CN2` the T/C (dose: 12.5 mg/kg/injection, schedule: Q04DX004 (sc), vehicle: saline with Tween-80) was 90 % of control and the T/C (dose: 25.0 mg/kg/injection, schedule: Q04DX004 (sc), vehicle: saline with Tween-80) was 104 % of control.
For `CC(=O)C(O)N1C(=O)C=CC1=O` (stereo unspecified), the T/C (dose: 2.5 mg/kg/injection, schedule: Q01DX010 (sc), vehicle: saline) was 123 % of control, the T/C (dose: 5.0 mg/kg/injection, schedule: Q01DX010 (sc), vehicle: saline) was 107 % of control and the T/C (dose: 10.0 mg/kg/injection, schedule: Q01DX010 (sc), vehicle: saline) was 52 % of control. The T/C (dose: 20.0 mg/kg/injection, schedule: Q01DX010 (sc), vehicle: saline) was 30 % of control.
`CCCCCCCC(=O)N/N=C(\CO)[C@]1(O)Cc2c(O)c3c(c(O)c2[C@@H](OC2CC(N)C(O)C(C)O2)C1)C(=O)c1c(OC)cccc1C3=O` (stereo partly specified) was tested, and the T/C (dose: 31.25 mg/kg/injection, schedule: Q04DX004 (sc), vehicle: water) was 2 % of control, the T/C (dose: 32.5 mg/kg/injection, schedule: Q04DX004 (sc), vehicle: water) was 102 % of control and the T/C (dose: 62.5 mg/kg/injection, schedule: Q04DX004 (sc), vehicle: water) was 51 % of control. For the same compound, the T/C (dose: 65.0 mg/kg/injection, schedule: Q04DX004 (sc), vehicle: water) was 34 % of control, the T/C (dose: 130.0 mg/kg/injection, schedule: Q04DX004 (sc), vehicle: water) was 46 % of control and the T/C (dose: 250.0 mg/kg/injection, schedule: Q04DX004 (sc), vehicle: water) was 10 % of control. The T/C (dose: 260.0 mg/kg/injection, schedule: Q04DX004 (sc), vehicle: water) was 19 % of control.
`COc1ccc(-c2cc(C(=O)Nc3cc(C(F)(F)F)cc(C(F)(F)F)c3)c3ccccc3n2)cc1` was tested, and the T/C (dose: 300.0 mg/kg/injection, schedule: Q04DX004 (ip), vehicle: DMSO) was 115 % of control and the T/C (dose: 600.0 mg/kg/injection, schedule: Q04DX004 (ip), vehicle: DMSO) was 50 % of control.

Reference: PubChem BioAssay AID206 (DTP/NCI, 2004)
